Test results reported in patent publication US20240423971A1, “APPLICATION OF RIP2 INHIBITOR COMBINED WITH CHEMOTHERAPY DRUG” (NINGBO COMBIREG PHARMACEUTICAL TECHNOLOGY CO., LTD., priority 2021, published 2024).

Legend:
melanoma (B16F10) = test: Melanoma (B16F10) tumor-bearing model, GSK583 combined with PTX; assay type: in vivo, C57BL/6 mice; conditions: GSK583 1 mg/kg
Protocol: Both of the test substances PTX (Sigma) and GSK583 (MCE) were prepared as a 20× DMSO stock solution, which was diluted with normal saline containing 5% (v/v) polyoxyethylene castor oil (Cremophor EL) to the administration concentration before use. Experimental animals and tumor strains: SPF grade male wild-type C57BL/6 mice, 6 to 8 weeks old, purchased from Beijing Vital River Laboratory Animal Technology Co., Ltd. Cells used in the experiment: murine melanoma cell line (B16-F10), purchased from ATCC. Mice were randomly divided into 4 groups with 8 mice in each group based on body weight according to the method shown in (A of FIG. 1 and B of FIG. 1), namely: (i) vehicle control group; (ii) GSK583 (1 mg/kg) group; (iii) PTX (10 mg/kg) group; (iv) GSK583 (1 mg/kg)+PTX (10 mg/kg) group. PTX, GSK583, and vehicle were administered intravenously once every 4 days for a total of 4 doses. The mice were subcutaneously inoculated with B16-F10 cells with a concentration of 2× 10^6 cells/mL and 0.1 mL/mouse, and the day of inoculation was recorded as DAY 0. The administration was started on DAY 1. During the administration, the animals were weighed every 2 days. The long diameter and short diameter of the tumor were measured with a vernier caliper. The tumor size was calculated by the formula: (½)×long diameter×(short diameter) 2. The experiment was terminated on DAY 15. After the mice were euthanized and dissected, the tumor was weighed and the tumor inhibition rate was calculated.

[1] = system: immune cells in tumor tissues of melanoma (B16F10) tumor-bearing model; test: Flow cytometry detection of proportion of immune cells in tumor microenvironment of melanoma tumor-bearing mice; assay type: in vivo, C57BL/6 mice; conditions: GSK583 1 mg/kg, PTX 10 mg/kg, combination vs vehicle, GSK583-alone
Protocol: Preparation of enzyme lysis buffer: 1 g of collagenase type IV (Sigma C5138), 100 mg of hyaluronidase (Sigma H6254), and 20,000 units of DNase type IV (Sigma D5025) were added to 80 mL of HBSS and mixed well. The mixture was then added with HBSS to make up a volume of 100 mL to obtain a 100×enzyme lysis buffer, which was filtered through a 0.22 μm filter membrane and stored at −20° C., and diluted with HBSS to 1× concentration before use.
Dissociation of tumor tissues: Tumor tissues were removed and weighed (0.04 to 1 g), then cut into small pieces of 2×2 mm with a scalpel, added with 2.5 mL of enzyme lysis mixture, and transferred to a gentleMACS C Tube (Miltenyi Biotec 130-096-334). The C Tube was inverted on a gentleMACS Dissociator (Miltenyi Biotec 130-093-235), and the program “gentleMACS Program m_impTumor_02” was run. The C Tube was removed from the gentleMACS Dissociator and incubated at 37° C. for 40 minutes. The C Tube was inverted on the gentleMACS Dissociator again, and the program “gentleMACS Program m_impTumor_03” was run. […]
Flow cytometry detection: After counting the dissociated tumor tissues, the cell concentration was adjusted, and 200 μL/well of cells (5 to 10×10^5 cells/well) were added to a 96 U-bottom plate. […] The cells were resuspended in 100 μL/well of cell staining buffer, and then detected by flow cytometry.

## CC(=O)O[C@H]1C(=O)[C@@]2(C)[C@H]([C@H](OC(=O)c3ccccc3)[C@]3(O)C[C@H](OC(=O)[C@H](O)[C@@H](NC(=O)c4ccccc4)c4ccccc4)C(C)=C1C3(C)C)[C@]1(OC(C)=O)CO[C@@H]1C[C@@H]2O [PTX, Paclitaxel]
Melanoma (B16F10); B16-F10 in C57BL/6 mice, PTX 10 mg/kg i.v. every 4 days x4, DAY 15, vs control group
  tumor weight at the end of the administration: significantly and statistically lower than that of the control group
Melanoma (B16F10); B16-F10 in C57BL/6 mice, PTX 10 mg/kg i.v. every 4 days x4, vs control group
  growth rate of tumor volume: slower than that of the control group
Melanoma (B16F10); B16-F10 s.c. in C57BL/6 mice, PTX 10 mg/kg i.v. once every 4 days, 4 doses, to DAY 15
  tumor growth compared to the vehicle control group: significantly inhibited tumor growth
[1]
  proportion of neutrophils in tumor tissues: significant decrease
